Patent publication US20060069132A1, “Azolecarboxamide herbicides” (priority 2004, published 2006)

What was measured:
[1] = system: large crabgrass; experiment: Test A pre-/postemergence herbicide test; assay type: in vivo, Digitaria sanguinalis
Summary of the method: (§1)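 Plants are held in greenhouse about ten days after treatment, then compared with untreated controls and scored 0 (no effect) to 100 (complete control). Preemergence dosing is a directed soil spray on sown sandy loam; postemergence dosing is spray to runoff at 2–10 cm height.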

[2] = system: giant foxtail; experiment: Test A pre-/postemergence herbicide test; assay type: in vivo, Setaria faberi
Summary of the method: as §1

[3] = system: morningglory; experiment: Test A pre-/postemergence herbicide test; assay type: in vivo, Ipomoea spp.
Summary of the method: as §1

[4] = system: lambsquarters; experiment: Test B pre-/postemergence herbicide test; assay type: in vivo, Chenopodium album
Summary of the method: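 Pre: seeds sown, then sprayed. Post: 1–4-leaf plants (2–18 cm) sprayed at the same time. Paddy: flooded, treated at 2-leaf stage. Formulation: non-phytotoxic solvent with surfactant. Greenhouse 13–15 days; visual 0–100 score relative to controls.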

[5] = system: johnsongrass; experiment: Test C pre-/postemergence herbicide test; assay type: in vivo, Sorghum halepense; settings: for Johnsongrass plant response rating: 500 g ai/ha
Summary of the method: (§2)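 Greenhouse-grown plants were evaluated visually 12 to 14 days after treatment, with 100 meaning complete control and 0 no effect. Application was preemergence, or postemergence at 2 to 18 cm.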

[6] = system: lambsquarters; experiment: Test C pre-/postemergence herbicide test; assay type: in vivo, Chenopodium album; settings: for Lambsquarters plant response rating: 500 g ai/ha
Summary of the method: as §2

[7] = system: common (oilseed) sunflower; experiment: Test C pre-/postemergence herbicide test; assay type: in vivo, Helianthus annuus; settings: for Plant response rating (0 = no effect, 100 = complete control), Sunflower: 62 g ai/ha; for Plant response rating (0 = no effect, 100 = complete control), Sunflower / Plant response rating, Sunflower: preemergence; for Plant response rating, Sunflower: visual, 12 to 14 days; for Sunflower plant response rating: Preemergence, 500 g ai/ha, scale 0 to 100, 0 no effect, 100 complete control
Summary of the method: as §2

[8] = system: smallflower umbrella sedge; experiment: Test C flooded paddy test; assay type: in vivo, Cyperus difformis; settings: for Plant response rating, Sedge, Umbrella: 500 g ai/ha, visual rating after 12 to 14 days
[9] = Postemergence, 500 g ai/ha, 0 to 100 scale, 0 no effect, 100 complete control
[10] = Postemergence, 2000 g ai/ha, 0 to 100 scale, 0 no effect, 100 complete control
[11] = Preemergence, 500 g ai/ha, visual rating, 0 to 100 scale (0 no effect, 100 complete control)
[12] = Preemergence, 2000 g ai/ha, 0 to 100 scale, 0 no effect, 100 complete control
[13] = Postemergence, 500 g ai/ha, visual rating after 13 to 15 days, scale 0 (no effect) to 100 (complete control)
[14] = postemergence, 125 g ai/ha, visual rating, scale 0 (no effect) to 100 (complete control)
[15] = preemergence, 125 g ai/ha, 0 to 100 scale, 0 is no effect, 100 is complete control
[16] = 125 g ai/ha, scale 0 (no effect) to 100 (complete control), visual, 12 to 14 days, preemergence
[17] = 250 g ai/ha, scale 0 to 100 (0 no effect, 100 complete control), visual, 12 to 14 days, preemergence
[18] = Postemergence, 250 g ai/ha, scale 0 to 100, 0 no effect, 100 complete control
[19] = Preemergence, scale 0 to 100, 0 no effect, 100 complete control
[20] = postemergence, 62 g ai/ha, scale 0 to 100
[21] = 125 g ai/ha, scale 0 (no effect) to 100 (complete control)
[22] = 62 g ai/ha, scale 0 to 100 (0 no effect, 100 complete control)
[23] = 125 g ai/ha, scale of 0 to 100, 0 is no effect, 100 is complete control
[24] = 250 g ai/ha, scale of 0 to 100, 0 is no effect, 100 is complete control
[25] = scale 0 to 100 (0 no effect, 100 complete control)

In the case of `CCNC(=O)c1cc(NC(=O)c2cc(C(C)(C)C)nn2CC)ccc1F` [Compound 58], the “Plant response rating, Crabgrass, Large” value [1, 9] is reported as 40, the “Plant response rating, Crabgrass, Large” value [1, 10] is reported as 75 and the “Crabgrass, Large plant response rating” value [1, 11] is reported as 70. For the same molecule, the “Crabgrass, Large plant response rating” value [1, 12] was 95, the “Plant response rating, Foxtail, Giant” value [2, 9] was 45 and the “Plant response rating, Foxtail, Giant” value [2, 10] was 60. For the same molecule, the “Foxtail, Giant plant response rating” value [2, 11] was 85, the “Foxtail, Giant plant response rating” value [2, 12] was 95 and the “Plant response rating, Morningglory” value [3, 9] was 10. For the same molecule, the “Plant response rating, Morningglory” value [3, 10] was 0, the “Morningglory plant response rating” value [3, 11] was 20 and the “Morningglory plant response rating” value [3, 12] was 40. For the same molecule, the “Plant response rating, Lambsquarters” value [4, 13] was 90, the “Lambsquarters plant response rating” value ([4]; Preemergence, 500 g ai/ha, scale 0 to 100) was 100 and the “Lambsquarters plant response rating” value [4, 14] was 90. For the same molecule, the “Plant response rating, Lambsquarters” value [4, 15] was 100, the “Plant response rating (0 = no effect, 100 = complete control), Johnsongrass” value ([5]; 62 g ai/ha, preemergence) was 70 and the “Plant response rating, Johnsongrass” value [5, 16] was 80. The “Plant response rating, Johnsongrass” value [5, 17] was 90, the “Johnsongrass plant response rating” value ([5]; Postemergence, scale 0 to 100) was 10 and the “Plant response rating, Johnsongrass” value ([5]; Postemergence, 125 g ai/ha, scale 0 to 100, 0 no effect, 100 complete control) was 0. The “Plant response rating, Johnsongrass” value [5, 18] was 5, the “Johnsongrass plant response rating” value [5, 19] was 100 and the “Plant response rating, Johnsongrass” value [5, 20] was 0. For the same molecule, the “Plant response rating (0 = no effect, 100 = complete control), Lambsquarters” value ([6]; 62 g ai/ha, preemergence) was 100, the “Plant response rating, Lambsquarters” value [6, 16] was 100 and the “Plant response rating, Lambsquarters” value [6, 17] was 100. For the same molecule, the “Lambsquarters plant response rating” value ([6]; Postemergence, scale 0 to 100) was 90, the “Plant response rating, Lambsquarters” value [6, 18] was 90 and the “Lambsquarters plant response rating” value [6, 19] was 100. The “Plant response rating, Lambsquarters” value [6, 20] was 60, the “Plant response rating (0 = no effect, 100 = complete control), Sunflower” value [7] was 0 and the “Plant response rating, Sunflower” value [7, 21] was 0. For the same molecule, the “Plant response rating, Sunflower” value ([7]; 250 g ai/ha, scale 0 to 100 (0 no effect, 100 complete control)) was 0, the “Sunflower plant response rating” value [7] was 0 and the “Sedge, Umbrella plant response rating” value [8, 22] was 0. For the same molecule, the “Sedge, Umbrella plant response rating” value [8, 23] was 20, the “Sedge, Umbrella plant response rating” value [8, 24] was 50 and the “Plant response rating, Sedge, Umbrella” value [8, 25] was 65.
For `CCn1nc(C(C)(C)C)cc1C(=O)Nc1cccc2c1CCN(C1CC1)C2=O` [Compound 64], the “Plant response rating, Crabgrass, Large” value [1, 9] was 30, the “Plant response rating, Crabgrass, Large” value [1, 10] was 60 and the “Crabgrass, Large plant response rating” value [1, 11] was 70. The “Crabgrass, Large plant response rating” value [1, 12] was 100, the “Plant response rating, Foxtail, Giant” value [2, 9] was 30 and the “Plant response rating, Foxtail, Giant” value [2, 10] was 55. The “Foxtail, Giant plant response rating” value [2, 11] was 40, the “Foxtail, Giant plant response rating” value [2, 12] was 90 and the “Plant response rating, Morningglory” value [3, 9] was 10. For the same molecule, the “Plant response rating, Morningglory” value [3, 10] was 10, the “Morningglory plant response rating” value [3, 11] was 0 and the “Morningglory plant response rating” value [3, 12] was 5. For the same molecule, the “Plant response rating, Lambsquarters” value [4, 13] was 70, the “Lambsquarters plant response rating” value [4, 14] was 70 and the “Plant response rating, Lambsquarters” value [4, 15] was 60. For the same molecule, the “Plant response rating (0 = no effect, 100 = complete control), Johnsongrass” value ([5]; 62 g ai/ha, preemergence) was 0, the “Plant response rating, Johnsongrass” value [5, 16] was 20 and the “Johnsongrass plant response rating” value [5, 19] was 60. The “Plant response rating (0 = no effect, 100 = complete control), Lambsquarters” value ([6]; 62 g ai/ha, preemergence) was 0, the “Plant response rating, Lambsquarters” value [6, 16] was 0 and the “Lambsquarters plant response rating” value [6, 19] was 90. For the same molecule, the “Plant response rating (0 = no effect, 100 = complete control), Sunflower” value [7] was 0, the “Plant response rating, Sunflower” value [7, 21] was 0 and the “Sunflower plant response rating” value [7] was 0. The “Sedge, Umbrella plant response rating” value [8, 22] was 0, the “Sedge, Umbrella plant response rating” value [8, 23] was 25 and the “Sedge, Umbrella plant response rating” value [8, 24] was 35. The “Plant response rating, Sedge, Umbrella” value [8, 25] was 75.
For `CCCN1CCc2c(NC(=O)c3cc(C(C)(C)C)nn3CC)cccc2C1=O` [Compound 65], the “Plant response rating, Crabgrass, Large” value [1, 9] was 30, the “Plant response rating, Crabgrass, Large” value [1, 10] was 60 and the “Crabgrass, Large plant response rating” value [1, 11] was 95. For the same molecule, the “Crabgrass, Large plant response rating” value [1, 12] was 100, the “Plant response rating, Foxtail, Giant” value [2, 9] was 30 and the “Plant response rating, Foxtail, Giant” value [2, 10] was 55. The “Foxtail, Giant plant response rating” value [2, 11] was 40, the “Foxtail, Giant plant response rating” value [2, 12] was 80 and the “Plant response rating, Morningglory” value [3, 9] was 10. For the same molecule, the “Plant response rating, Morningglory” value [3, 10] was 10, the “Morningglory plant response rating” value [3, 11] was 5 and the “Morningglory plant response rating” value [3, 12] was 5. For the same molecule, the “Plant response rating, Lambsquarters” value [4, 13] was 70, the “Lambsquarters plant response rating” value [4, 14] was 70 and the “Plant response rating, Lambsquarters” value [4, 15] was 80. For the same molecule, the “Plant response rating (0 = no effect, 100 = complete control), Johnsongrass” value ([5]; 62 g ai/ha, preemergence) was 10, the “Plant response rating, Johnsongrass” value [5, 16] was 40 and the “Johnsongrass plant response rating” value [5, 19] was 100. For the same molecule, the “Plant response rating (0 = no effect, 100 = complete control), Lambsquarters” value ([6]; 62 g ai/ha, preemergence) was 20, the “Plant response rating, Lambsquarters” value [6, 16] was 95 and the “Lambsquarters plant response rating” value [6, 19] was 100. The “Plant response rating (0 = no effect, 100 = complete control), Sunflower” value [7] was 0, the “Plant response rating, Sunflower” value [7, 21] was 0 and the “Sunflower plant response rating” value [7] was 0. For the same molecule, the “Sedge, Umbrella plant response rating” value [8, 22] was 0, the “Sedge, Umbrella plant response rating” value [8, 23] was 20 and the “Sedge, Umbrella plant response rating” value [8, 24] was 75. The “Plant response rating, Sedge, Umbrella” value [8, 25] was 80.
In the case of `CCOC(=O)c1cccc(NC(=O)c2cc(C(C)(C)C)nn2CC)c1C` [Compound 88], the “Crabgrass, Large plant response rating” value [1, 9] is reported as 85, the “Plant response rating, Crabgrass, Large” value [1, 10] is reported as 95 and the “Crabgrass, Large plant response rating” value [1, 11] is reported as 45. For the same molecule, the “Crabgrass, Large plant response rating” value [1, 12] was 100, the “Foxtail, Giant plant response rating” value [2, 9] was 20 and the “Plant response rating, Foxtail, Giant” value [2, 10] was 60. The “Foxtail, Giant plant response rating” value [2, 11] was 55, the “Foxtail, Giant plant response rating” value [2, 12] was 90 and the “Morningglory plant response rating” value [3, 9] was 35. For the same molecule, the “Plant response rating, Morningglory” value [3, 10] was 40, the “Morningglory plant response rating” value [3, 11] was 10 and the “Morningglory plant response rating” value [3, 12] was 40. The “Plant response rating, Lambsquarters” value [4, 13] was 100, the “Lambsquarters plant response rating” value [4, 14] was 70 and the “Plant response rating, Lambsquarters” value [4, 15] was 100. The “Plant response rating (0 = no effect, 100 = complete control), Johnsongrass” value ([5]; 62 g ai/ha, preemergence) was 0, the “Plant response rating, Johnsongrass” value [5, 16] was 20 and the “Johnsongrass plant response rating” value [5, 19] was 70. For the same molecule, the “Plant response rating (0 = no effect, 100 = complete control), Lambsquarters” value ([6]; 62 g ai/ha, preemergence) was 95, the “Plant response rating, Lambsquarters” value [6, 16] was 95 and the “Lambsquarters plant response rating” value [6, 19] was 100. The “Plant response rating (0 = no effect, 100 = complete control), Sunflower” value [7] was 0, the “Plant response rating, Sunflower” value [7, 21] was 0 and the “Sunflower plant response rating” value [7] was 0. The “Sedge, Umbrella plant response rating” value [8, 22] was 0, the “Sedge, Umbrella plant response rating” value [8, 23] was 50 and the “Sedge, Umbrella plant response rating” value [8, 24] was 80. For the same molecule, the “Plant response rating, Sedge, Umbrella” value [8, 25] was 80.
